Earlier results on 1 compound are cited in US11027026B2, “Polymer, and contrast agent for photoacoustic imaging, including the polymer” (CANON KABUSHIKI KAISHA, priority 2014, dated 2021).

For the data set the following is noted: in vivo.

Turning to `CC1(C)C(/C=C/C=C/C=C/C=C2/N(CCCCS(=O)(=O)[O-])c3ccc4ccccc4c3C2(C)C)=[N+](CCCCS(=O)(=O)[O-])c2ccc3ccccc3c21.[Na+]` [ICG, indocyanine green], the Half-life in blood entry is reported as “about several minutes”.
